Experimental data taken from article PMC4823954, “From fighting depression to conquering tumors: a novel tricyclic thiazepine compound as a tubulin polymerization inhibitor” (Cell Death & Disease, 2016).

What was measured:
Experiment in all cases: KINOMEscan
Assay type in all cases: binding
Details in all cases: read-out: % Ctrl
TGFBR2 = molecular target: T1, TGFBR2 (Homo sapiens, UniProt P37173)
T1 construct: purchased DiscoveRx KINOMEscan
Method in brief: (§1)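 Competition binding panel of 442 non-mutant kinases: test compound at 5 and 10 μM competed with an active-site-directed ligand for 1 h with shaking. Bound kinase was eluted with 0.5 μM ligand and quantified by qPCR; %Ctrl = (compound − positive control)/(DMSO − positive control) × 100, lower meaning tighter binding.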

TAOK3 = molecular target: T2, TAOK3 (Homo sapiens, UniProt Q9H2K8)
T2 construct: purchased DiscoveRx KINOMEscan
Method in brief: as §1

PAK2 = molecular target: T3, PAK2 (Homo sapiens, UniProt Q13177)
T3 construct: purchased DiscoveRx KINOMEscan
Method in brief: as §1

MAP4K4 = molecular target: T4, MAP4K4 (Homo sapiens, UniProt O95819)
T4 construct: purchased DiscoveRx KINOMEscan
Method in brief: as §1

SRPK3 = molecular target: T5, SRPK3 (Homo sapiens, UniProt Q9UPE1)
T5 construct: purchased DiscoveRx KINOMEscan
Method in brief: as §1

PIK3CA(I800L) = molecular target: T6, PIK3CA(I800L) (Homo sapiens, UniProt P42336, I800L)
T6 construct: purchased DiscoveRx KINOMEscan

ERBB4 = molecular target: T7, ERBB4 (Homo sapiens, UniProt Q15303)
T7 construct: purchased DiscoveRx KINOMEscan
Method in brief: as §1

CSK = molecular target: T8, CSK (Homo sapiens, UniProt P41240)
T8 construct: purchased DiscoveRx KINOMEscan
Method in brief: as §1

CASK = molecular target: T9, CASK (Homo sapiens, UniProt O14936)
T9 construct: purchased DiscoveRx KINOMEscan
Method in brief: as §1

RIOK2 = molecular target: T10, RIOK2 (Homo sapiens, UniProt Q9BVS4)
T10 construct: purchased DiscoveRx KINOMEscan
Method in brief: as §1

SRC = molecular target: T11, SRC (Homo sapiens, UniProt P12931)
T11 construct: purchased DiscoveRx KINOMEscan
Method in brief: as §1

BMPR1B = molecular target: T12, BMPR1B (Homo sapiens, UniProt O00238)
T12 construct: purchased DiscoveRx KINOMEscan
Method in brief: as §1

CDK4-cyclinD3 = molecular target: T13, CDK4-cyclinD3 (Homo sapiens, UniProt P11802)
T13 construct: purchased DiscoveRx KINOMEscan
Method in brief: as §1

DMPK2 = molecular target: T14, DMPK2 (Homo sapiens, UniProt Q6DT37)
T14 construct: purchased DiscoveRx KINOMEscan
Method in brief: as §1

PRKG1 = molecular target: T15, PRKG1 (Homo sapiens, UniProt Q13976)
T15 construct: purchased DiscoveRx KINOMEscan
Method in brief: as §1

RIOK3 = molecular target: T16, RIOK3 (Homo sapiens, UniProt O14730)
T16 construct: purchased DiscoveRx KINOMEscan
Method in brief: as §1

CAMK2G = molecular target: T17, CAMK2G (Homo sapiens, UniProt Q13555)
T17 construct: purchased DiscoveRx KINOMEscan
Method in brief: as §1

ABL1-phosphorylated = molecular target: T18, ABL1-phosphorylated (Homo sapiens, UniProt P00519)
T18 construct: purchased DiscoveRx KINOMEscan
Method in brief: as §1

CLK3 = molecular target: T19, CLK3 (Homo sapiens, UniProt P49761)
T19 construct: purchased DiscoveRx KINOMEscan
Method in brief: as §1

ULK1 = molecular target: T20, ULK1 (Homo sapiens, UniProt O75385)
T20 construct: purchased DiscoveRx KINOMEscan
Method in brief: as §1

MST1R = molecular target: T21, MST1R (Homo sapiens, UniProt Q04912)
T21 construct: purchased DiscoveRx KINOMEscan
Method in brief: as §1

PIK3CA(H1047L) = molecular target: T22, PIK3CA(H1047L) (Homo sapiens, UniProt P42336, H1047L)
T22 construct: purchased DiscoveRx KINOMEscan

STK36 = molecular target: T23, STK36 (Homo sapiens, UniProt Q9NRP7)
T23 construct: purchased DiscoveRx KINOMEscan
Method in brief: as §1

MARK3 = molecular target: T24, MARK3 (Homo sapiens, UniProt P27448)
T24 construct: purchased DiscoveRx KINOMEscan
Method in brief: as §1

CDC2L5 = molecular target: T25, CDC2L5 (Homo sapiens, UniProt Q14004)
T25 construct: purchased DiscoveRx KINOMEscan
Method in brief: as §1

CAMK1G = molecular target: T26, CAMK1G (Homo sapiens, UniProt Q96NX5)
T26 construct: purchased DiscoveRx KINOMEscan
Method in brief: as §1

FLT3 = molecular target: T27, FLT3 (Homo sapiens, UniProt P36888)
T27 construct: purchased DiscoveRx KINOMEscan
Method in brief: as §1

GRK7 = molecular target: T28, GRK7 (Homo sapiens, UniProt Q8WTQ7)
T28 construct: purchased DiscoveRx KINOMEscan
Method in brief: as §1

BRAF(V600E) = molecular target: T29, BRAF(V600E) (Homo sapiens, UniProt P15056, V600E)
T29 construct: purchased DiscoveRx KINOMEscan

EPHB2 = molecular target: T30, EPHB2 (Homo sapiens, UniProt P29323)
T30 construct: purchased DiscoveRx KINOMEscan
Method in brief: as §1

T22 sequence (P42336 whole entry H1047L): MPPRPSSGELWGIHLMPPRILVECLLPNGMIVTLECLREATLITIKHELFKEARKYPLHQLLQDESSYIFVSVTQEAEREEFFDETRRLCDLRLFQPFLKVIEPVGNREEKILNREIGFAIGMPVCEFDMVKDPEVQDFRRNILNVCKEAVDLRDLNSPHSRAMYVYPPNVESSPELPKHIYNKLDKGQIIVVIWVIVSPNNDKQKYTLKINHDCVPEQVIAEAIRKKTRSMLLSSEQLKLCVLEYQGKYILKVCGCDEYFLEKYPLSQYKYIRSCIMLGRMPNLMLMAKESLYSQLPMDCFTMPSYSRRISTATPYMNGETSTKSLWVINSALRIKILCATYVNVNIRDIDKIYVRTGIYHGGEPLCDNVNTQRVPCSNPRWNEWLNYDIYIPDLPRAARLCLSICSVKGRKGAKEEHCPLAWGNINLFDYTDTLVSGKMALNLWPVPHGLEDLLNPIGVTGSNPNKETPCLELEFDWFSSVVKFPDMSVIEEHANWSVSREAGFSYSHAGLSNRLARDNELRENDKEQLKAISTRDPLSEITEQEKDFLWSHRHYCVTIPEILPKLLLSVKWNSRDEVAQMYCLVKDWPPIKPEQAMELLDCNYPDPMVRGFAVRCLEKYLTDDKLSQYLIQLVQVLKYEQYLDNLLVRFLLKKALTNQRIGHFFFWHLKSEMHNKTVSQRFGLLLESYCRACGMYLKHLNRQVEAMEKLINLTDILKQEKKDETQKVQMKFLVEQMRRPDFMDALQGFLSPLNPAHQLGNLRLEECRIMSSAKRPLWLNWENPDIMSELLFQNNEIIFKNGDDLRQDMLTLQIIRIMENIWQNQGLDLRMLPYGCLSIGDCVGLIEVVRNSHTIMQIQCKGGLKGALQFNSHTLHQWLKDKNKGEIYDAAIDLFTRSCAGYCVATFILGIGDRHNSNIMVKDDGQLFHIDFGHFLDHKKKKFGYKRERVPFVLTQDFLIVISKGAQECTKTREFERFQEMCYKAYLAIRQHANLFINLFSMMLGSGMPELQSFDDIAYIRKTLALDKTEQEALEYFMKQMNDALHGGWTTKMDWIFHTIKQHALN
T14 sequence (Q6DT37 whole entry): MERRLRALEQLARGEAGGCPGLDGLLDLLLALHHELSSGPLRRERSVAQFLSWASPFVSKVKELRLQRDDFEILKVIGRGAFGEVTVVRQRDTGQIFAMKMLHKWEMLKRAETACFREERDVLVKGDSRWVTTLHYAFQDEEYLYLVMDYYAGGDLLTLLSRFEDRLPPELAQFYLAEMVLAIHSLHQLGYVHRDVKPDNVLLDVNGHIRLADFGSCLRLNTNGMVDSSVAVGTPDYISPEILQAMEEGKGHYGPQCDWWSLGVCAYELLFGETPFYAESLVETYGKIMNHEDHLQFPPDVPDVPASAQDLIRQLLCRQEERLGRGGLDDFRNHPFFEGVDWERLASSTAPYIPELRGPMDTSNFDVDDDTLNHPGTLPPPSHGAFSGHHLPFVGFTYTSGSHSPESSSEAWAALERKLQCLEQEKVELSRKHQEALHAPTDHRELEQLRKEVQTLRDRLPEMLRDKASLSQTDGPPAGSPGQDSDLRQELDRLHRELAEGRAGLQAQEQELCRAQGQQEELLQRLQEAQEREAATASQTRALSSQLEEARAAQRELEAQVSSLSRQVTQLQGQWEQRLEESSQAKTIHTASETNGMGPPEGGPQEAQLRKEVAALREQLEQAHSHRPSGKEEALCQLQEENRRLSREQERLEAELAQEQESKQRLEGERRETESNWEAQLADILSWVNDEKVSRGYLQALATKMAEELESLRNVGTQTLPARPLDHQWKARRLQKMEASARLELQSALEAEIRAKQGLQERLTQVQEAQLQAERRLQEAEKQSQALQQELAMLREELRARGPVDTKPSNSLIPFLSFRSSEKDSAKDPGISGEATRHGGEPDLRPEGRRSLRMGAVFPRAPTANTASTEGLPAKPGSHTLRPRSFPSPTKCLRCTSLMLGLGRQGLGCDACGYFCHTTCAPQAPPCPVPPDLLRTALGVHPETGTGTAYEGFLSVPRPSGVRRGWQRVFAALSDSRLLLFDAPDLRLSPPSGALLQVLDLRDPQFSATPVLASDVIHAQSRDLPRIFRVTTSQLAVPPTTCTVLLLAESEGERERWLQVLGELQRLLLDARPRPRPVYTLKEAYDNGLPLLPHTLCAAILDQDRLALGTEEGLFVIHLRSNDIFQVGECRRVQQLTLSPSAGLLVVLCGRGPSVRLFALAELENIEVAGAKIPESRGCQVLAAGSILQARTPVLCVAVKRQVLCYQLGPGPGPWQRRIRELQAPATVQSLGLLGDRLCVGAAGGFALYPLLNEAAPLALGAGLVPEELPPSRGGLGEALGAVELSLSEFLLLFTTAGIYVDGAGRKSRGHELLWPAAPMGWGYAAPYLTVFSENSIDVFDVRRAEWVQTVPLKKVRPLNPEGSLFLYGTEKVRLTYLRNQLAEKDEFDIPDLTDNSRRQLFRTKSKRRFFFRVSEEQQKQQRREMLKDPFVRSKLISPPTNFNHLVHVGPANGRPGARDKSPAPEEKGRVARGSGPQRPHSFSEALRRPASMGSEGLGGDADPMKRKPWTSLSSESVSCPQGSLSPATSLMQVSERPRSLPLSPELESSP
T18 sequence (P00519 whole entry): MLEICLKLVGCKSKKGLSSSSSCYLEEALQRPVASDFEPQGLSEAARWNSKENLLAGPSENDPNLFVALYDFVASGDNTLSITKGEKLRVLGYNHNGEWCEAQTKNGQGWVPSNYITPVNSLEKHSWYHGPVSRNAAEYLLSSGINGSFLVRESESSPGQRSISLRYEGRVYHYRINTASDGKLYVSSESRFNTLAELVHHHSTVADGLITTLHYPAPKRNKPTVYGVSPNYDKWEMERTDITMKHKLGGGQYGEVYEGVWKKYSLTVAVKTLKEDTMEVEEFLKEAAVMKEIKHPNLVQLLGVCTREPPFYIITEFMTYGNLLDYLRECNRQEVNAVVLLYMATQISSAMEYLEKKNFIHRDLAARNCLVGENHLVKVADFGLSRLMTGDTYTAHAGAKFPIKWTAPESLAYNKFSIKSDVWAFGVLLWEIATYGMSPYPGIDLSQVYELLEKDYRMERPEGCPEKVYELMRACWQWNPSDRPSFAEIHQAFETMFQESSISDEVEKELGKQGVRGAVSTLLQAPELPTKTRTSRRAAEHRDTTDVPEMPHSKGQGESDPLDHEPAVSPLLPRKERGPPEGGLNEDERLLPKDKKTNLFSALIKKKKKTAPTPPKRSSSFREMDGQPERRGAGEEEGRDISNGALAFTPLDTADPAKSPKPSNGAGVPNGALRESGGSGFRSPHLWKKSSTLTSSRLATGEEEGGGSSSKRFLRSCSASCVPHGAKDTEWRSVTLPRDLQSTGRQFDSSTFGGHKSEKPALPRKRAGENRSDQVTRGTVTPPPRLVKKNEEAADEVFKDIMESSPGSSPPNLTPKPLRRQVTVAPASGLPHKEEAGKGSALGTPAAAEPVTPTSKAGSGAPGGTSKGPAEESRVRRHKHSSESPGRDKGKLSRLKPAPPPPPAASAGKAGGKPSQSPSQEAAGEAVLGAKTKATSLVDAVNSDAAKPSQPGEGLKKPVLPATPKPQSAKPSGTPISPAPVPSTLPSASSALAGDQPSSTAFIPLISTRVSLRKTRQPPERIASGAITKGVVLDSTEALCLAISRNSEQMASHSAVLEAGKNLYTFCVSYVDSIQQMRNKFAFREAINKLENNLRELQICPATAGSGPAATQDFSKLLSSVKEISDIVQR
T4 sequence (O95819 whole entry): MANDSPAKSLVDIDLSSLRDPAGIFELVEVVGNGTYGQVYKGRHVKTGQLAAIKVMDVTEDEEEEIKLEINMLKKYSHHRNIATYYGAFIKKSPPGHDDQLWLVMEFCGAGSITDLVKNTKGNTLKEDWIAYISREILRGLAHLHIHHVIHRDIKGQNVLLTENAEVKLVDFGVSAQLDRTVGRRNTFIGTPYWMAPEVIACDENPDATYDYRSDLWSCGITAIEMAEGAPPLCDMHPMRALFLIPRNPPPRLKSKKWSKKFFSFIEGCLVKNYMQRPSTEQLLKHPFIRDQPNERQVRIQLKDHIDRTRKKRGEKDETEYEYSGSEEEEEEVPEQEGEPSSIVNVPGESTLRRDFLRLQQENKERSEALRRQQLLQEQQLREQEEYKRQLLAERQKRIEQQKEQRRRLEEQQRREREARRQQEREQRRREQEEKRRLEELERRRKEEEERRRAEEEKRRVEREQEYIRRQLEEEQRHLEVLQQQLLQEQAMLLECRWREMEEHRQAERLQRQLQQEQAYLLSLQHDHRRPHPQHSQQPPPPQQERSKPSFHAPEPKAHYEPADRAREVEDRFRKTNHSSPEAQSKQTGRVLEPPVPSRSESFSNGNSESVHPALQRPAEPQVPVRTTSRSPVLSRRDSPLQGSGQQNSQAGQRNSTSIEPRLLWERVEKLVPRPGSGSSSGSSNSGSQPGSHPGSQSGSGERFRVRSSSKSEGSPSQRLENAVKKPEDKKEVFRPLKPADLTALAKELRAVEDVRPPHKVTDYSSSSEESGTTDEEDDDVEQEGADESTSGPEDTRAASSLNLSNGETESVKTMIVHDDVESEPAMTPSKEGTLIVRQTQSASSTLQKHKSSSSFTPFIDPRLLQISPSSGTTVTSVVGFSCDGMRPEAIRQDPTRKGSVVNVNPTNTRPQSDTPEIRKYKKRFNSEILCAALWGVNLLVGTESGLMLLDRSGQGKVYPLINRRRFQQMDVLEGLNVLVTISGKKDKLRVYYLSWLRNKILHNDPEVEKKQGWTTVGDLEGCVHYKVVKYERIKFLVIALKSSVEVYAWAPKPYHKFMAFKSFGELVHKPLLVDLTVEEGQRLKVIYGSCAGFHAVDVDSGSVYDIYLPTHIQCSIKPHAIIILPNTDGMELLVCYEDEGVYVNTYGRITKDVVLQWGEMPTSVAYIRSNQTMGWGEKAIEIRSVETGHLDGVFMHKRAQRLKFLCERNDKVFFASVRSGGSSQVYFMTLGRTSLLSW
T6 sequence (P42336 whole entry I800L): as the sequence (P42336 whole entry H1047L) above, with I800L, L1047H counted along it

With Cc1ccc(C2=Nc3cccnc3S(=O)(=O)c3ccccc32)cc1 [TBPT, 6-(p-tolyl)benzo[f] pyrido[2,3-b][1,4] thiazepine 11,11-dioxide] the remaining binding at 5 µM (TGFBR2; 5 μM) was 100%, the remaining binding at 10 µM (TGFBR2; 10 μM) was 81% and the remaining binding at 5 µM (TAOK3; 5 μM) was 89%. For the same molecule, the remaining binding at 10 µM (TAOK3; 10 μM) was 100%, the remaining binding at 5 µM (PAK2; 5 μM) was 100% and the remaining binding at 10 µM (PAK2; 10 μM) was 100%. The remaining binding at 5 µM (MAP4K4; 5 μM) was 94%, the remaining binding at 10 µM (MAP4K4; 10 μM) was 63% and the remaining binding at 5 µM (SRPK3; 5 μM) was 100%. The remaining binding at 10 µM (SRPK3; 10 μM) was 89%, the remaining binding at 5 µM (PIK3CA(I800L); 5 μM) was 98% and the remaining binding at 10 µM (PIK3CA(I800L); 10 μM) was 72%. It also gave a remaining binding at 5 µM (ERBB4; 5 μM) of 93%, a remaining binding at 10 µM (ERBB4; 10 μM) of 99% and a remaining binding at 5 µM (CSK; 5 μM) of 96%. For the same molecule, the remaining binding at 10 µM (CSK; 10 μM) was 100%, the remaining binding at 5 µM (CASK; 5 μM) was 100% and the remaining binding at 10 µM (CASK; 10 μM) was 100%. For the same molecule, the remaining binding at 5 µM (RIOK2; 5 μM) was 95%, the remaining binding at 10 µM (RIOK2; 10 μM) was 100% and the remaining binding at 5 µM (SRC; 5 μM) was 87%. It also gave a remaining binding at 10 µM (SRC; 10 μM) of 100%, a remaining binding at 5 µM (BMPR1B; 5 μM) of 95% and a remaining binding at 10 µM (BMPR1B; 10 μM) of 88%. It also gave a remaining binding at 5 µM (CDK4-cyclinD3; 5 μM) of 100%, a remaining binding at 10 µM (CDK4-cyclinD3; 10 μM) of 90% and a remaining binding at 5 µM (DMPK2; 5 μM) of 100%. The remaining binding at 10 µM (DMPK2; 10 μM) was 83%, the remaining binding at 5 µM (PRKG1; 5 μM) was 96% and the remaining binding at 10 µM (PRKG1; 10 μM) was 100%. It also gave a remaining binding at 5 µM (RIOK3; 5 μM) of 100%, a remaining binding at 10 µM (RIOK3; 10 μM) of 100% and a remaining binding at 5 µM (CAMK2G; 5 μM) of 100%. The remaining binding at 10 µM (CAMK2G; 10 μM) was 96%, the remaining binding at 5 µM (ABL1-phosphorylated; 5 μM) was 72% and the remaining binding at 10 µM (ABL1-phosphorylated; 10 μM) was 97%. It also gave a remaining binding at 5 µM (CLK3; 5 μM) of 100%, a remaining binding at 10 µM (CLK3; 10 μM) of 100% and a remaining binding at 5 µM (ULK1; 5 μM) of 100%. The remaining binding at 10 µM (ULK1; 10 μM) was 83%, the remaining binding at 5 µM (MST1R; 5 μM) was 80% and the remaining binding at 10 µM (MST1R; 10 μM) was 100%. For the same molecule, the remaining binding at 5 µM (PIK3CA(H1047L); 5 μM) was 100%, the remaining binding at 10 µM (PIK3CA(H1047L); 10 μM) was 100% and the remaining binding at 5 µM (STK36; 5 μM) was 84%. The remaining binding at 10 µM (STK36; 10 μM) was 100%, the remaining binding at 5 µM (MARK3; 5 μM) was 96% and the remaining binding at 10 µM (MARK3; 10 μM) was 87%. The remaining binding at 5 µM (CDC2L5; 5 μM) was 100%, the remaining binding at 10 µM (CDC2L5; 10 μM) was 97% and the remaining binding at 5 µM (CAMK1G; 5 μM) was 100%. The remaining binding at 10 µM (CAMK1G; 10 μM) was 100%, the remaining binding at 5 µM (FLT3; 5 μM) was 100% and the remaining binding at 10 µM (FLT3; 10 μM) was 68%. The remaining binding at 5 µM (GRK7; 5 μM) was 100%, the remaining binding at 10 µM (GRK7; 10 μM) was 100% and the remaining binding at 5 µM (BRAF(V600E); 5 μM) was 94%. It also gave a remaining binding at 10 µM (BRAF(V600E); 10 μM) of 94%, a remaining binding at 5 µM (EPHB2; 5 μM) of 91% and a remaining binding at 10 µM (EPHB2; 10 μM) of 100%.
